From patent US9732226B2, “Azo compound, ink containing azo compound, and display and electronic paper containing the ink” (MITSUBISHI CHEMICAL CORPORATION, priority 2012, dated 2017)
Values after ≈ are worked out from the molar mass of the structure shown.

Assays:
Format in all cases: physicochemical
[1] = Solubility C in n-decane at 5° C. (saturated solution, absorbance); conditions: for solubility at 24 h: organic solvent or mixture, thermodynamic from solid, saturation solubility in n-decane at 5° C.; for ε · C / εC: product of ε and solubility C in n-decane at 5° C.; for C: solubility in n-decane at 5° C.
Description: <Method for Measurement of Solubility C>
The solubility C of Example Compounds 1 to 4 and Comparative Example Compound in n-decane solution was measured as follows.
The compound was added to the solvent until the undissolved residue remained, and ultrasonically treated at 30° C. for 30 minutes. After left at 5° C. for 24 hours, this was centrifuged and filtered through a 0.1 μm-filter using an ultracompact centrifuge (centrifugal force, 5200×g). The resultant saturated solution was diluted to have a suitable concentration, and using a quartz cell having an optical length of 10 mm, the absorption spectrum thereof was measured with Hitachi Spectrophotometer U-4100. From the relationship between the absorbance at the absorption maximum wavelength λmax (nm) and the previously-determined molar absorbance coefficient ε([…]) thereof, the concentration of each compound was determined, and the solubility C (mol·L^−1) at 5° C. and εC (cm^−1) thereof were calculated.

[2] = Absorption spectrum of n-decane solution (absorption maximum wavelength, molar absorbance coefficient, color); conditions: for Maximum Absorption Wavelength: 1 mg in 100 ml n-decane, quartz cell; for Color Tone: color of the solution of the compound in n-decane; for ε (molar absorbance coefficient) / ε / λmax: n-decane solution; for ε (molar absorbance coefficient): at absorption maximum wavelength; for ε / λmax: same manner as for Example Compound 1
Description: <Method for Measurement of Absorption Maximum Wavelength λMax, Molar Absorbance Coefficient ε>
One mg of each of Example Compounds 1 to 4 and Comparative Example Compound was dissolved in 100 ml of n-decane solution to prepare a solution thereof, and using a quartz cell, the absorption spectrum thereof was measured with Hitachi Spectrophotometer U-4100. The resultant spectrum of the compound gave the absorption maximum wavelength λmax (nm) and the molar absorbance coefficient ε(L·mol^−1·cm^−1) thereof.

[3] = Relative permittivity of solvent; conditions: 22° C., measurement frequency 1 kHz
Description: (§1) <Method for Measurement of Relative Permittivity of Solvent> The solvent was sandwiched between opposed parallel-plate ITO electrode-attached glass substrates having an electrode spacing of 50 μm, and using LCR Meter ZN2371 (manufactured by NF Corporation), the equivalent parallel capacitance thereof was measured at a measurement temperature of 22° C. and at a frequency of 1 kHz, given a test signal voltage of 5 V. Through calculation according to the following equation, the relative permittivity of the solvent was determined. Relative Permittivity=(equivalent parallel capacitance)×(electrode spacing)/(electrode area)/vacuum permittivity(ε0) <Method for Measurement of Solubility of Solvent in Water>

[4] = Solubility of solvent in water; conditions: pure water, thermodynamic from solid, 25° C.
Description: as §1, with “The” for “<Method for Measurement of Relative Permittivity of Solvent> The”
30 g of pure water and 8 g of the solvent were put into a 110 ml-vial, and shaken in a thermostat bath at 25° C. at 200 shake/min for 4 hours. After thus shaken, the liquid was centrifuged (6000×g, 5 minutes), the aqueous layer was sampled, and the concentration of the dissolved solvent was quantified through gas chromatography.
For a mixed solvent comprising two or more different types of solvents, the solubility in water was determined by multiplying the solubility in water of each solvent constituting the mixed solvent by the molar fraction of each solvent, followed by totaling the resultant data. […]

For `CCCCC(CC)CN(CC(CC)CCCC)c1ccc(N=Nc2c(C#N)cc(C(F)(F)F)cc2C#N)c(NC(C)=O)c1` (stereo not drawn) [Example Compound 1], the solubility at 24 h [1] was 20 mM (≈ 11.9 mg/mL), the “ε · C” value [1] was 1,600 cm^−1 and the “Maximum Absorption Wavelength” value [2] was 584 nm. For the same compound, the “Color Tone” value [2] was “violet” and the “ε (molar absorbance coefficient)” value [2] was 80,000 L · mol^−1 · cm^−1.

In the case of `C=CCn1c(N=Nc2ccc(N(CCC)CCC)cc2NC(C)=O)nc(C#N)c1C#N` [Comparative Example Compound, reference compound], the solubility at 24 h [1] is reported as no more than 0.01 mM, the “ε · C” value [1] is reported as 10 or less cm^−1 and the “Maximum Absorption Wavelength” value [2] is reported as 512 nm. For the same compound, the “Color Tone” value [2] was “red” and the “ε (molar absorbance coefficient)” value [2] was 34,000 L · mol^−1 · cm^−1.

`CCCCC(CC)CNc1ccc(NCC(CC)CCCC)c2c1C(=O)c1ccc(C(=O)OCC(C)C)cc1C2=O` (stereo not drawn) [Blue Compound A, reference compound] showed a εC [1] of 3200 cm⁻¹, a C [1] of 0.170 mol/L and a ε [2] of 19000 L/mol/cm. The λmax [2] was 668 nm.

In the case of `CCCCC(=O)Nc1cc(N(CC(CC)CCCC)CC(CC)CCCC)ccc1N=Nc1c(C#N)cc(C(F)(F)F)cc1C#N` (stereo not drawn) [Example Compound 3], the solubility at 24 h [1] is reported as 350 mM (≈ 224 mg/mL), the “ε · C” value [1] is reported as 26,000 cm^−1 and the “Maximum Absorption Wavelength” value [2] is reported as 585 nm. The “Color Tone” value [2] was “violet” and the “ε (molar absorbance coefficient)” value [2] was 75,000 L · mol^−1 · cm^−1.

For `CCCCC(CC)COC(=O)c1cc(C#N)c(N=Nc2ccc(N(CC(CC)CCCC)CC(CC)CCCC)cc2NC(C)=O)c(C#N)c1` (stereo not drawn) [Example Compound 4], the solubility at 24 h [1] was 75 mM (≈ 51.4 mg/mL), the “ε · C” value [1] was 6,000 cm^−1 and the “Maximum Absorption Wavelength” value [2] was 590 nm. For the same compound, the “Color Tone” value [2] was “violet” and the “ε (molar absorbance coefficient)” value [2] was 80,000 L · mol^−1 · cm^−1.

In the case of `CCCCC(CC)COC(=O)c1cc(C#N)c(N=Nc2ccc(N(CC(CC)CCCC)CC(CC)CCCC)cc2NC(=O)CC)c(C#N)c1` (stereo not drawn) [Example Compound 2], the solubility at 24 h [1] is reported as 160 mM (≈ 112 mg/mL), the “ε · C” value [1] is reported as 13,000 cm^−1 and the “Maximum Absorption Wavelength” value [2] is reported as 591 nm. The “Color Tone” value [2] was “violet” and the “ε (molar absorbance coefficient)” value [2] was 80,000 L · mol^−1 · cm^−1.

With `CCCCC(CC)CN(CC(CC)CCCC)c1ccc(N=Nc2snc(CC)c2C#N)c(C)c1` (stereo not drawn) [Red Compound A] the εC [1] was 3900 cm⁻¹, the C [1] was 0.086 mol/L and the ε [2] was 4600 L/mol/cm. The λmax [2] was 530 nm.

For `CCCCCCCCCC` [n-decane], the relative permittivity [3] was 2.0 and the solubility at 4 h [4] was no more than 1 µg/mL.

`CCCCc1nn(C(C)(C)C)c(O)c1N=Nc1ccc(N=Nc2ccccc2)cc1` [Yellow Compound A, reference compound] showed a εC [1] of 1900 cm⁻¹, a C [1] of 0.076 mol/L and a ε [2] of 25000 L/mol/cm. The λmax [2] was 417 nm.
